Key:
Format in all cases: in vivo, rat
[1] = system: ovariectomized Sprague-Dawley rats; test: Acute experiment, single i.v. injection of Belamcanda sinensis extract: serum LH
Procedure: All experiments described below were carried out with ovariectomized Sprague-Dawley rats (=ovx rats) having a weight between 240 and 280 g. The onset of the effect of the estradiol-type effect of Belamcanda sinensis extract occurs very quickly. Even after a single i.v. administration of vehicle, estradiol and Belamcanda sinensis extract to ovx rats, pulsatility ceases both under E2 and under Belamcanda sinensis. […] Cremophor is an emulsifier on the basis of polyethoxylated castor oil derivatives. The results are represented in FIG. 2. […] On the day of the experiment, 6 blood samples were taken at 10-min intervals. Immediately following taking of the 6th sample, 62.5 mg of the Belamcanda sinensis extract or 10 μg 17-β-estradiol (E2) or the solvent (5%) cremophor in isotonic NaCl 1 ml), respectively, were injected intravenously, and blood samples were taken for another 2 hours in 10-minute intervals. 6 hours after the intravenous administration, the animals were decapitated, blood was obtained and the uteri removed, weighed and deep-frozen in liquid nitrogen.

[2] = system: uterine VEGF, IGF1 and C3 genes, CCO gene; test: Acute experiment, single i.v. injection: uterine gene expression; settings: six hours after single i.v. injection; vs controls
Procedure: All experiments described below were carried out with ovariectomized Sprague-Dawley rats (=ovx rats) having a weight between 240 and 280 g. […] On the day of the experiment, 6 blood samples were taken at 10-min intervals. Immediately following taking of the 6th sample, 62.5 mg of the Belamcanda sinensis extract or 10 μg 17-β-estradiol (E2) or the solvent (5%) cremophor in isotonic NaCl 1 ml), respectively, were injected intravenously, and blood samples were taken for another 2 hours in 10-minute intervals. 6 hours after the intravenous administration, the animals were decapitated, blood was obtained and the uteri removed, weighed and deep-frozen in liquid nitrogen.

[3] = system: ovariectomized Sprague-Dawley rats; test: Subacute test, daily s.c. injection through 7 days (Belamcanda sinensis): body weight, uterus weight, serum LH; settings: 7 days daily s.c., 62.5 mg extract or 10 μg estradiol
Procedure: In the blood samples, LH and the estradiol immunoreactivity were determined.

[4] = system: uterine VEGF gene, CCO gene; test: Subacute test 7 days s.c. (Belamcanda sinensis): gene expression in uterine mRNA extract; settings: after one-week treatment, 10 μg estradiol s.c. daily
Procedure: (§1) All experiments described below were carried out with ovariectomized Sprague-Dawley rats (=ovx rats) having a weight between 240 and 280 g.
The effects of repeated administration of estradiol, Belamcanda sinensis extract and vehicle on overall weight, uterus weight, hormone level and gene activation of uterus and bone were examined on ovariectomized rats after daily s.c. application through seven days.
8 animals each per test group (24 altogether) were daily injected subcutaneously between 8:00 and 9:00 a.m. with 62.5 mg Belamcanda sinensis extract and 10 μg estradiol or the solvent (cremophor 5%, 1 ml), respectively. 6 h after the last application, the animals were decapitated and from every animal the aorta, the uterus and the left femur head were removed, cleaned, and frozen in liquid nitrogen.

[5] = system: collagen-1A1, osteocalcin, IGF1 and TGFβ-mRNA, CCO gene in femur head; test: Subacute test 7 days s.c. (Belamcanda sinensis): mRNA expression in extracts of the femur head; settings: 7 days daily s.c.
Procedure: In extracts of the femur head, the collagen-1A1, osteocalcin, IGF1 and TGFβ-mRNA expression was determined.

[6] = system: ovariectomized Sprague-Dawley rats; test: Repeated s.c. administration of Cimicifuga racemosa over 7 days: uterus weight, vagina, LH; settings: 7 days s.c. once daily
Procedure: (§5) 14 days following ovarectomy at the earliest, the animals have the respective test substance injected subcutaneously in a dose of 62.5 mg Cimicifuga racemosa/rat or 8 pg estradiol/rat once daily in the morning over a period of 7 days. Both substances were dissolved in 5% cremophor, the control animals only received the vehicle.
The LH concentration in the blood of the animals was determined by means of RIA.

[7] = system: mRNA for the estrogen receptor; test: Repeated administration of Cimicifuga racemosa: mRNA expression in preoptic region of the hypothalamus (RT-PCR); settings: 7 days s.c.; semi-quantitative RT-PCR
Procedure: Both substances were dissolved in 5% cremophor, the control animals only received the vehicle.
(§6) Following decapitation of the animals, brains, uterus and femur were prepared for mRNA-recovery. […] The expression of the estrogen-regulated genes in the above identified organs was determined by means of semi-quantitative RT-PCR.
(§7) As another marker for the estrogenic effect, the activation of mRNA of estrogen-inducible proteins was measured. What was measured here was tissue from uterus, from bone tissue (femur) and from the preoptic region of the hypothalamus.

[8] = system: mRNA for collagen 1 and osteocalcin; test: Repeated administration of Cimicifuga racemosa: mRNA expression in bone (femur) (RT-PCR); settings: 7 days s.c., semi-quantitative RT-PCR
Procedure: as §5, §6, §7

[9] = system: mRNA for IGF1 and complement factor C3; test: Repeated administration of Cimicifuga racemosa: mRNA expression in uterus (RT-PCR); settings: 7 days s.c.; semi-quantitative RT-PCR
Procedure: as §5, §6
What was measured here was tissue from uterus, from bone tissue (femur) and from the preoptic region of the hypothalamus.

[10] = system: ovariectomized Sprague-Dawley rats; test: One-time i.v. administration of tectorigenin: LH levels in the blood; settings: single i.v. 7 mg tectorigenin
Procedure: as §1
(§2) Following a single administration of tectorigenin, the time development of influence on the LH levels in the blood and the estradiol-type immunoreactivity were determined. The concentration of tectorigenin in the blood of the animals, determined with the aid of E2-RIA, after 20 min corresponds to about 100 pg equivalent estradiol.
(§3) Execution: OVX rats had catheters placed in the vena jugularis externa under ether anesthesia 24 hours before the beginning of the experiment, in accordance with the method of Harms and Ojeda (Harms P G; Ojeda S R: A rapid and simple procedure for chronic cannulation of the rat jugular vein. J. Appl. Physiol. (1974) 36: 391-392). The tube end was positioned in a skin pocket in the neck. In order not to have to touch the animals for obtaining the blood samples, the catheter was prolonged with the aid of a silicone tube. Catheter and tube were rinsed with Ringer solution containing 50 IU heparin/ml.
Blood samples of 100 μl each were drawn from the animals at 10-min intervals, and the withdrawn volume replaced with Ringer/heparin solution. After the 6th sample, 1.0 ml of the respective test solution was applied intravenously. As test solutions there were used: 2% cremophor (=vehicle solution), tectorigenin 7 mg/ml vehicle, 17-β-estradiol 10 μg/ml vehicle. Blood was taken at ten-minute intervals through additional 140 min.
The blood samples thus obtained were filled into a 0.5 ml Eppendorf reaction vessel containing 10 μl heparin-Losung (5000 IU/ml, Liquemin), centrifuged for 10 min at 10 000*g, and the plasma stored at −20° C. until performance of the radioimmunoassays.
(§4) The RIAs for LH and Prolaktin are based on antisera, reference and iodisation preparations from NIH (Bethesda, Md., USA). The concentrations of estradiol and of the cross-reactive isoflavones were measured with the aid of an RIA from DPC, Bad Nauheim.

[11] = One-time i.v. administration of tectorigenin: estradiol-type immunoreactivity in blood (E2-RIA); settings: after 20 min; single i.v. 7 mg tectorigenin; ovx rats
Procedure: as §1, §2
as §3, with “heparin/ml. […]” for “heparin/ml.”
as §4

## C[C@]12CC[C@@H]3c4ccc(O)cc4CC[C@H]3[C@@H]1CC[C@@H]2O [E2, 17-β-estradiol]
[1]; 62.5 mg extract or 10 μg E2, ovx rats
  LH pulsatility: ceases
[1]; 62.5 mg extract or 10 μg E2, prior to and 2 hours after injection, vs previous values and cremophor controls
  serum LH levels: significant inhibitions
[2]
  expression of the uterine C3 gene: clear increase
  expression of the uterine IGF1 gene: clear increase
  expression of the uterine VEGF gene: clear increase
[3]; vs cremophor
  average body weights: significantly lighter
  uterus weights: more than tripled
[3]; vs cremophor controls
  serum LH levels: more marked
[4]
  gene expression of VEGF in uterine mRNA extract: 149 % of the control value
[5]
  IGF1 mRNA expression in femur head: significantly inhibited
  TGFβ mRNA expression in femur head: significantly inhibited
  collagen-1A1 mRNA expression in femur head: significantly inhibited
  constitutive CCO gene expression in femur head: without having an influence
  osteocalcin mRNA expression in femur head: significantly inhibited
[6]; 62.5 mg Cimicifuga racemosa/rat or 8 pg estradiol/rat, n=8, RIA
  LH concentrations in the blood, mean values: 7.83 ng/mL
[6]; 62.5 mg Cimicifuga racemosa/rat or 8 pg estradiol/rat, n=8, ovx rats
  Uterus weights (wet), mean values: 702.1 mg
[6]; ovx rats
  LH levels compared with vehicle (in words): lowered significantly
  hornification of the vaginal epithelium tissue: quite contrary
  uterus weight compared with vehicle (in words): more than three times the weight
[7]
  expression of the mRNA for the estrogen receptor in the preoptic region of the hypothalamus: stimulate
[8]
  expression of the mRNA for osteocalcin in bone tissue: reduces, in analogy with estradiol
  expression of the mRNA for the bone-specific collagen 1 in bone tissue: reduces, in analogy with estradiol
[9]
  mRNA for IGF1 in the uterus: increases
  mRNA for complement factor C3 in the uterus: increases

## COc1c(O)cc2occ(-c3ccc(O)cc3)c(=O)c2c1O [tectorigenin]
[10]; compared with 10 μg 17-β-estradiol
  kinetics of the LH reduction up to 60 min following i.v. administration: precisely correspond to the one of estradiol
[10]; ovx rats
  LH levels in the blood: rapid LH reduction
[10]; sampling to 140 min
  course of LH after 60 min following i.v. administration: do not result in further reduction but slowly increases again
[11]
  concentration of tectorigenin in the blood, determined with E2-RIA: about 100 pg equivalent estradiol
